Laboratory results as given in ChEMBL document CHEMBL2439976, “Discovery of NMS-E973 as novel, selective and potent inhibitor of heat shock protein 90 (Hsp90)” (Bioorg Med Chem, 2013).

Assays:
[1] = in vivo; settings: Balb nu/nu, mouse, plasma, iv, 10 mg/kg
[2] = in vivo; settings: Balb nu/nu, mouse, iv, 10 mg/kg
[3] = in vivo; settings: Balb nu/nu, mouse, iv, 10 mg/kg; remark: listed apart in the source
[4] = in vivo; settings: Balb nu/nu, mouse, iv, 10 mg/kg; remark: listed apart in the source

Row | AUC(0-inf) [1] | Vd [2] | half-life [3] | clearance [4] | SMILES
1 | 5.92 µM·h | 19.7 L/kg | 333 min | 62.3 mL/min/kg | CN1CCC(NC(=O)c2cc(-c3c(O)cc(O)cc3Oc3ccc(N(C)C)cc3)on2)CC1
2 | 7.6 µM·h | 4.94 L/kg | 328 min | 29.4 mL/min/kg | CN(C)c1ccc(Oc2cc(O)cc(O)c2-c2cc(C(=O)NC3CCN(C4CCC5(CC4)OCCO5)CC3)no2)cc1
3 | 4.8 µM·h | 18.4 L/kg | 326 min | 64.8 mL/min/kg | CC(C)Nc1ccc(Oc2cc(O)cc(O)c2-c2cc(C(=O)NC3CCN(C)CC3)no2)cc1
